The target of experiment [1] is T1, porcine pancreatic lipase (PPL) (Sus scrofa, UniProt P00591).
T1 construct: gene PNLIP
Put plainly: p-nitrophenol ester hydrolysis assay, absorbance at […] nm, free PPL; also ligand fishing with immobilized PPL. Format: biochemical.

For experiment [2], the target named is T1, porcine pancreatic lipase (PPL). Put plainly: p-nitrophenol ester hydrolysis assay, absorbance at […] nm, free PPL; in ligand fishing some nonspecific adsorption to blank MMOF. Format: biochemical.

For three compounds, IC50 results are on record in PMC9182405, “Rapid Screening of Lipase Inhibitors in Scutellaria baicalensis by Using Porcine Pancreatic Lipase Immobilized on Magnetic Core–Shell Metal–Organic Frameworks” (Molecules, 2022).

T1 sequence (P00591 whole entry): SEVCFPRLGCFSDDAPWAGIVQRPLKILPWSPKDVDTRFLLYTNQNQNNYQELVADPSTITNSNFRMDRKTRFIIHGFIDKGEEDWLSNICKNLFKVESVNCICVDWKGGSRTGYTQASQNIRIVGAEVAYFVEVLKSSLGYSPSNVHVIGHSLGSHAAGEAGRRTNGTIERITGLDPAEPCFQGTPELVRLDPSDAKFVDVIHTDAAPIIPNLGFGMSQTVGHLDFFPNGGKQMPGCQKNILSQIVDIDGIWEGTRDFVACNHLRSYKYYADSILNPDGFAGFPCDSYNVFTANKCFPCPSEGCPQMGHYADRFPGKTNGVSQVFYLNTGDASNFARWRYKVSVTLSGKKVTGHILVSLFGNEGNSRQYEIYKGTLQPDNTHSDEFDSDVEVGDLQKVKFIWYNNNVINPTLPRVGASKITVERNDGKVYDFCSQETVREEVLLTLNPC

Turning to `COc1c(O)cc2oc(-c3ccccc3)cc(=O)c2c1O` [compound 8, Oroxylin A], in experiment [1], the IC50 (as a rule, the concentration that inhibits the measured activity by half) was found to be 82.7 ± 3.6 µM. On the same count and under the same terms, the same measure for `O=C(O)[C@H]1O[C@@H](Oc2cc3oc(-c4ccccc4)cc(=O)c3c(O)c2O)[C@H](O)[C@@H](O)[C@@H]1O` [compound 3, Baicalin]: 242 ± 5.6 µM.

As for `COc1c(O)cc(O)c2c(=O)cc(-c3ccccc3)oc12` [compound 7, Wogonin], in experiment [2], it took 168 ± 8.4 µM to reach half-maximal inhibition (IC50).
